# Literature values, collected in PMC9669016, “First-in-human phase Ia study of the PI3Kα inhibitor CYH33 in patients with solid tumors” (Nature Communications, 2022).
# Tests used:
# PI3Kβ, PI3Kδ, and PI3Kγ = tested on: PI3Kβ, PI3Kδ, and PI3Kγ; parameters: method as in PMID 33109399; conditions: read-out: IC50 range; cited from earlier work
# [1] = tested on: EC063 esophageal cancer PDX; parameters: method as in Investigator's Brochure (IB) 12; conditions: 12.5 mg/kg oral for 21 days; ref Investigator's Brochure (IB) 12; cited from earlier work
# [2] = tested on: phosphorylation of Akt and rpS6; parameters: method as in Investigator's Brochure (IB) 12; conditions: ref Investigator's Brochure (IB) 12, cited from earlier work
# [3] = parameters: method as in Investigator's Brochure (IB) 12; conditions: dogs, ref Investigator's Brochure (IB) 12, cited from earlier work
# Beagle dogs = tested on: Beagle dogs; parameters: method as in Investigator's Brochure (IB) 12; conditions: long-term, ref Investigator's Brochure (IB) 12; cited from earlier work
structure (smiles),measurement,setting,value
"COC(=O)Nc1cc(C(F)(F)F)c(-c2nc(N3CCOCC3)c3cc(CN4CCN(S(C)(=O)=O)CC4)cn3n2)cn1 [CYH33, methyl (5-(6-((4-(methylsulfonyl)piperazin-1-yl)methyl)−4-morpholinopyrrolo[2,1-f][1,2,4]triazin-2-yl)−4-(trifluoromethyl)pyridin-2-yl)carbamate]",IC50,"PI3Kβ, PI3Kδ, and PI3Kγ",43 to 611 nM
same,T/C ratio,[1],approximately 30%
same,time of peak concentration in tumor tissues,"[2]; single dose 12.5, 25, 50 mg/kg",2 h
same,phosphorylation of Akt and rpS6 in tumor tissues,"[2]; single dose, at 0.25 h (25, 50 mg/kg) or 0.5 h (12.5 mg/kg), recovered after 8 h",down-regulate
same,absolute bioavailability,[3]; 0.05 mg/kg,70.9%
same,"Vss, steady-state volume of distribution",[3],1.86 L/kg
same,accumulation after continuous administration for 7 days,[3],not significant
same,elimination half-life,[3],5.1 h
same,plasma clearance CL,[3],6.75 mL/min/kg
same,highest non-severely toxic dose (HNSTD),Beagle dogs,0.2 mg/kg
